Among the data in US4244956A, “Method of treating inflammation” (Forsyth Dental Infirmary for Children, priority 1979, dated 1981) are IC50 values, retold here.

The target in one assay is T1, prostaglandin synthetase (Ovis aries, UniProt P05979).
T1 construct: sheep vesicular gland microsomal preparation; from tissue; host or cells: sheep vesicular gland microsomes
T1 sequence (P05979 25-600): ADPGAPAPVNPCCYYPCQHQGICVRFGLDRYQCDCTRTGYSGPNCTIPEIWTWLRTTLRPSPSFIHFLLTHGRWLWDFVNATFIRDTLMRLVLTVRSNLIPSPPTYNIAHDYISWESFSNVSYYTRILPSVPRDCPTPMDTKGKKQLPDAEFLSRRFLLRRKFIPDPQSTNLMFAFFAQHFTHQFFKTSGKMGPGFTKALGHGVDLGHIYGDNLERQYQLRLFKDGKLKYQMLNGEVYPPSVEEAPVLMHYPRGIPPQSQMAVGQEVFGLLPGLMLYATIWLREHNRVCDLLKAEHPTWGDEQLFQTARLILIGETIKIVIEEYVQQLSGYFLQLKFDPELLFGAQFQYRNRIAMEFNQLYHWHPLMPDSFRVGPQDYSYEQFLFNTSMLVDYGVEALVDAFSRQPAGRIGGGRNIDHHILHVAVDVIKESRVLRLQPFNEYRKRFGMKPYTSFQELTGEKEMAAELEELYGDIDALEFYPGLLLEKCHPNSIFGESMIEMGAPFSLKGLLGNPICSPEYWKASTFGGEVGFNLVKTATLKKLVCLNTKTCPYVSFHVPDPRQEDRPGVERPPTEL
Briefly: Inhibition of prostaglandin synthesis, sheep vesicular gland microsomal preparation, oxygen electrode. Format: biochemical. The following applies: sheep vesicular gland microsomes, pH 8.0, inhibitor added 1 minute before arachidonate; oxygen uptake; read-out: [I]50 Values for Inhibition of Prostaglandin Synthesis. As for the experimental part:
A commonly used model system for examination of prostaglandin synthetase inhibition is the sheep vesicular gland microsomal preparation (Wallach, D. P. and Daniels, E. G., Biochim. Biophys. Acta., 231: 445-457 (1971)). Prostaglandin synthetase activity was determined by following oxygen tension in a closed reaction chamber using a Clark-type oxygen electrode. For each assay, 2.9 ml of 0.1 M tris HCl buffer, pH 8.0, 10 ul of 0.2 M phenol, and 50 ul of enzyme suspension (2.5 mg microsomal preparation) were added to the reaction chamber. 10 ul of inhibitor in ethanol were added 1 minute prior to initiation of the reaction. The reaction was initiated by addition of 10 ul of 3.7 mM arachidonate solution. The concentration of an inhibitor that reduced prostaglandin synthesis by 50% ([I]50) was determined from plots of activity v. log concentration of inhibitor.

For a further assay, the system named is platelet aggregation. Briefly: Inhibition of arachidonate-induced platelet aggregation in platelet-rich plasma (aggregometer). Format: cell-based. The following applies: 37° C, 50 ul of 10 mM arachidonate, read-out: [I]50, concentration of inhibitor which prevented irreversible aggregation 50% of the time. As for the experimental part: Inhibition of platelet aggregation by prostaglandin synthetase inhibitors is of potential value in treating thromboembolic disorders. Aggregation experiments were performed in a single-channel Chrono-log Platelet Aggregometer at 37° C. To 500 ul of platelet-rich plasm were added 2 ul of inhibitor solution and 50 ul of 10 mM arachidonate. The [I]50 value was defined as the concentration of inhibitor which prevented irreversible aggregation 50% of the time. The [I]50 of 2-(phenylmethoxy)phenol was 0.57 uM.

pIC50: −log10 of the molar value.

For `Cc1ccccc1COc1ccccc1O` [2-(2-methylphenylmethoxy)phenol], the pIC50 at prostaglandin synthetase was 5.33.
Take `Oc1ccccc1OCc1cccc(Cl)c1` [2-(3-chlorophenylmeythoxy)phenol, 2-(3-chlorophenylmethoxy)phenol]: the pIC50 at prostaglandin synthetase is 5.48.
For `Oc1ccccc1OCc1ccccc1` [2-(phenylmethoxy)phenol], the pIC50 at prostaglandin synthetase is 5.28; with platelet aggregation, 6.24.
